Where two headings read alike, the source gives them in different places.
Tests used:
human CD40-CD40L = target: T1, human CD40-CD40L (Homo sapiens, UniProt P29965); experiment: Cell-free ELISA-type CD40-CD40L binding inhibition assay
T1 construct: purchased Enzo Life Sciences (San Diego, Calif.)
T1 sequence (P29965 116-261 limits assumed): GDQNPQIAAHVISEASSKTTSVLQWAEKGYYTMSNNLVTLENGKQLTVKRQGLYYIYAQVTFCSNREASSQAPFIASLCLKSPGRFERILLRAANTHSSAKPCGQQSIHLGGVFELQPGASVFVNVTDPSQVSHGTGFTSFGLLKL
Protocol: Compounds according to the disclosure were assessed for their ability to inhibit the binding of tagged ligands to plate-bound receptors using ELISA-type 96-well plate-based cell-free assays as described in the literature (see Margolles-Clark et al, J Mol Med 87:1133-1143 (2009); Margolles-Clark et al., Chem Biol Drug Des 76:305-313 (2010); Song et al., Br J Pharmacol 171:4955-4969 (2014); and Ganesan et al., Biochem Pharmacol 81:810-818 (2011)).
Recombinant receptors (hCD40:Fc, TNF-R1:Fc) and tagged ligands (hCD154, MegaCD40L, and TNF-α), were obtained from Enzo Life Sciences (San Diego, Calif.). Microtiter plates (Nunc F Maxisorp; 96-well) were coated overnight at 4° C. with 100 μL/well of Fc chimeric receptors diluted in PBS 7.2. This was followed by blocking with 200 μL/well of blocking solution (PBS 7.2, 0.05% Tween-20, 1% BSA) for 1 hour at room temperature. […] Either anti-FLAG-HRP or streptavidin-HRP conjugate was used to detect the bound FLAG-tagged or biotinylated ligand, respectively. Plates were washed three times before the addition of 120 μL/well of HRP substrate TMB (3, 3′, 5, 5′-tetramethylbenzidine) and kept in the dark for 15-30 min. The reaction was stopped using 30 μL 1M H2SO4, and the absorbance was read at 450 nm. Stock solutions of compounds at 10 mM in DMSO were used.
(§1) Typical concentrations used were as follows—receptors: 0.3 μg/mL for CD40, TNF-R1, and RANK; 0.6 μg/mL for BAFF-R, OX40, and 4-1BB; and 2 μg/mL for EGF-R-ligands: 0.02 μg/mL for CD40L, TNFα, and RANKL; 0.2 μg/ml for BAFF, OX40L, 4-1BBL; and 0.3 μg/mL for EGF. Assays were done in duplicate or triplicate per plate and repeated at least three times; the averaged data were normalized and used for data fitting and analysis. Binding data were fitted using the standard log inhibitor versus response model in GraphPad Prism to determine the corresponding IC50 values.

[1] = test system: CD40L-induced AID activation in human B cells; experiment: Inhibition of CD40L-induced human B-cell function (AID activation, Ds-Red reporter, flow cytometry); type: cell-based; conditions: for IC50: Homo sapiens, B-cell; for inhibition of CD40L-induced human B-cell function, AID activation (in words): human B cells, flow cytometry
Protocol: Activities in blocking CD40L-induced effects were assessed in a human B cell functional assay that quantitates B-cell function by measuring AID activation via a downstream fluorescent marker using flow cytometry. Activation-induced cytidine deaminase (AID) is necessary for both class switch recombination (CSR) and somatic hypermutation (SHM) of Ig genes, which are important for the generation of high-affinity antibodies and robust humoral immune response (see Frasca et al., Methods Mol Biol 1343:107-114 (2015)). AID is encoded by the aicda gene that is exclusively expressed in B cells and is necessary for opening the DNA molecule in the switch (S) regions in order to allow CSR. […] To further validate the activity of the present compounds, an aicda-lentiviral construct containing the promoter and enhancer region of aicda fused to the reporter Ds-Red was generated and used to transfect human B cells isolated from healthy donors. In these cells, regulation of AID expression through CD40-CD40L signaling following incubation at different conditions were evaluated by Ds-Red level assessed via flow cytometry.
B cells were isolated using anti-CD19 Microbeads (Miltenyi Biotech) from PBMC collected from healthy donors, and they were purified using magnetic columns. These B cells were than transfected with an aicda-DsRed vector using a lentiviral protocol, 1.25×10^5 cells/mL of transfected B cells were stimulated with IL-4 at 0.2 μg/mL and CD40 ligand at 0.2 μg/mL in IMDM media with 10% FBS. In addition, various concentrations of candidate compounds diluted in the same media were added along with the described condition above. Also, 1 μg/ml of CpG was used as positive control for activation. After culture for 2 days at 37° C. and 5% CO2, B cells were collected, and AID activation level as represented by the level of Ds-Red expression was assessed by flow cytometry using BD LSRFortessa cell analyzer.
These are important results as they were obtained in freshly isolated human B cells, a model particularly relevant for autoimmune diseases, and they assess effects on function not just proliferation or viability.

OX40-OX40L = target: T2, OX40-OX40L (Homo sapiens, UniProt P23510+P43489); experiment: Cell-free ELISA-type OX40 binding inhibition assay; conditions: Table 2
T2 sequence (P43489 29-214 limits assumed): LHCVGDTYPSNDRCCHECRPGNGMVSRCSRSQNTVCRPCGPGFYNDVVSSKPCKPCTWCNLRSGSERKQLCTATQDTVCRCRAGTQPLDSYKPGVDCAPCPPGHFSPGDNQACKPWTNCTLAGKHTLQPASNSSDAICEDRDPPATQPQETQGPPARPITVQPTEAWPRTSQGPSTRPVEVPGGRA
T2 sequence (P23510 51-183 limits assumed): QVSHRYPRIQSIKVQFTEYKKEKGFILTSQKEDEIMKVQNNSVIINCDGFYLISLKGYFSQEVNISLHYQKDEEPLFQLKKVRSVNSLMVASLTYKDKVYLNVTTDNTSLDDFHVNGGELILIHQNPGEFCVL
Protocol: as §1

[2] = test system: CD40L-induced proliferation of human CD19+ B cells; experiment: Inhibition of CD40L-induced human CD19+ B-cell proliferation (BrdU); type: cell-based; conditions: for IC50: B-cell
Protocol: Because CD40 stimulation is an important signal for B cell proliferation, soluble CD40L can concentration-dependently induce the proliferation of human B cells.
Inhibition of cell proliferation was determined in freshly isolated human CD19^+ B cells using the colorimetric cell proliferation ELISA BrdU kit from Roche Applied Science (Indianapolis, Ind.). B cells were isolated from the PBMC as follows. Briefly, cells were washed three times with medium (RPMI 1640) and incubated for 20 min at 4° C. with 20 μL/10^7 cells of anti-CD19 Microbeads (Miltenyi Biotech, Bergisch Gladbach, Germany), according to the MiniMacs protocol (Miltenyi Biotech). Cells were then purified using magnetic columns. […] Cells were cultured in 96 wells plates (100 μL/well) at a cell density of 2×10^5 cells/mL in IMDM medium supplemented with 5% FBS, 100 U/mL penicillin, streptomycin 100 μg/mL, insulin-transferrin-selenium-G (all materials from Invitrogen, San Diego, Calif.) and 10 […] (R&D Systems). […] After 48 h, BrdU labeling solution was added as recommended, and cells were cultivated for another 48 h. Detection of incorporated BrdU was carried out following the instructions of the ELISA BrdU kit.
Data are average±SD for n=3 independent experiments with triplicates for each condition using a standard BrdU assay (Roche).

[3] = IC50, inhibition of the CD40-CD40L interaction, cell-free binding, n=3 independent experiments
[4] = 48 h, read-out: IC50, inhibition of CD40L-induced AID activation

Compound	IC50 (human CD40-CD40L; [3]) [nM]	IC50 (human CD40-CD40L; IC50 CD40, Table 2) [nM]	inhibition of human CD40-CD40L binding (in words) (human CD40-CD40L; cell-free binding)	IC50 [1, 4] [µM]	IC50 ([1]; read-out: IC50 B Cell) [µM]	inhibition of CD40L-induced human B-cell function, AID activation (in words) [1]	IC50 (OX40-OX40L) [µM]	inhibition of CD40L-induced human CD19+ B-cell proliferation (in words) [2]	IC50 (human CD40-CD40L; Table 2, read-out: IC50 CD40) [nM]	IC50 (human CD40-CD40L; cell-free binding, n=3 independent experiments, read-out: IC50, inhibition of the CD40-CD40L interaction) [nM]	IC50 [2] [µM]
O=C(Nc1ccc(-c2ccc(C(=O)Nc3cccc4cccc(S(=O)(=O)O)c34)cc2)cc1)c1ccc([N+](=O)[O-])cc1 [Compound 21041, 8-[(4′-[4-nitrobenzamido]biphenyl-4-yl-carbonyl)amino]naphthalene-1-sulfonic acid]	310	300	concentration-dependent inhibition	13.2	13.2	concentration-dependent inhibition	605	concentration-dependent inhibition			
COC(=O)c1ccc(C(=O)Nc2ccc(-c3ccc(C(=O)Nc4cccc5cccc(S(=O)(=O)O)c45)cc3)cc2)cc1 [Compound 21045]			concentration-dependent inhibition	4.5	4.5	concentration-dependent inhibition	135	concentration-dependent inhibition	100	140	~20
O=C(Nc1ccc(-c2ccc(C(=O)Nc3ccc(C(=O)O)c4ccccc34)cc2)cc1)c1ccc([N+](=O)[O-])cc1 [Compound 25441]	360		concentration-dependent inhibition	15.9	15.9	concentration-dependent inhibition	2.7	concentration-dependent inhibition	400		~20
